The record followed here is patent US11498930B2 (BLUERAY THERAPEUTICS (SHANGHAI) CO., LTD., priority 2018, dated 2022).

SMILES strings stand for the structures. Like-named read-outs stand apart in the source and are kept apart here.

One assay concerns the target SHP2^E76A protein (Homo sapiens (Human), UniProt Q06124, E76A). Description: SHP2 enzyme activity inhibition experiment. It counts as biochemical. The method in brief:
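Compounds tested at 10 concentrations in 3-fold serial dilution. IC50 from a four-parameter Hill-slope nonlinear fit of enzyme activity versus concentration.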

The test system of assay [1] is phosphorylation level of intracellular protein kinase (ERK) in MOLM13 cells. Nature of the assay: Phosphorylated protein kinase (p-ERK) cell experiment (AlphaLISA). It counts as cell-based. To be noted: Homo sapiens, MOLM-13, MOLM13 cells. As to the method: The inhibitory activities of the compounds on the phosphorylation level of intracellular protein kinase (ERK) were determined by AlphaLISA method.
Firstly, the cells were treated with the compounds. The compounds to be tested were subjected to 3-fold dilution with 100% DMSO, and a total of 9 different concentration gradients were set. MOLM13 cells were then seeded into 96-well plates at a density of 30,000 cells per well in a volume of 100 µL per well. […] of DMSO or the test compounds with different concentrations was then transferred into each well, setting two duplicates for each concentration, and the final concentration of DMSO was controlled at 0.5%.
Secondly, the cells were lysed. After 2 hours of cell treatment, the medium was removed, and the cells were washed 3 times with phosphate buffered saline. 50 µL of freshly prepared lysis buffer was added to each well, and the plates were shaken and kept at room temperature for 10 minutes.
Thirdly, the phosphorylated extracellular signal-regulated kinase (p-ERK) was detected by AlphaLISA@ SureFire® Ultra™ p-ERK 1/2 (Thr202/Tyr204) kit (Perkin Elmer, ALSU-PERK-A10K). 10 µL of the above lysate was transferred to a 384-well plate (Perkin Elmer, 6005350), and the phosphorylation level of the extracellular signal-regulated kinase of the sample was detected according to the product instructions. The signal was read using AlphaScreen detector on Spectra max i3 (Molecular Devices). The percentage of inhibition (%) was calculated by the following formula: Inhibition percentage(%)=(1−p-ERK signal of compound-treated cells/p-ERK signal of DMSO-treated cells)*100
(Alpha assays give light when donor and acceptor beads are brought close together.)

For another assay, the system named is MOLM-13 cells. Description: MOLM-13 cell proliferation experiment. The format is cell-based. As to conditions: Homo sapiens. The protocol:
After 3 days, 5 µL of CellTiter-Glo reagent (Promega, ZG7572) was added to each well, and the plates were kept at room temperature in the dark for 10 minutes. The […] was detected by Spectra max i3 (Molecular Devices). The relative growth rate of the treated cells was compared with that of DMSO control.

The mark [2] stands for this setting: SHP2 enzyme activity, Tables 1.1 and 1.2, read-out: IC50.
Where [3] appears, read: Table 4, read-out: SHP2 enzyme activity IC50.
[4] abbreviates: MOLM-13, 72 h, MOLM-13 cell proliferation, 3 days, Tables 3.1 and 3.2, read-out: IC50.
Setting [5] is: MOLM-13, read-out: MOLM-13 cell proliferation IC50.
The mark [6] stands for this setting: p-ERK, 2 hours of cell treatment, Tables 2.1 and 2.2, read-out: IC50.

SHP2^E76A protein, sequence (Q06124 whole entry E76A): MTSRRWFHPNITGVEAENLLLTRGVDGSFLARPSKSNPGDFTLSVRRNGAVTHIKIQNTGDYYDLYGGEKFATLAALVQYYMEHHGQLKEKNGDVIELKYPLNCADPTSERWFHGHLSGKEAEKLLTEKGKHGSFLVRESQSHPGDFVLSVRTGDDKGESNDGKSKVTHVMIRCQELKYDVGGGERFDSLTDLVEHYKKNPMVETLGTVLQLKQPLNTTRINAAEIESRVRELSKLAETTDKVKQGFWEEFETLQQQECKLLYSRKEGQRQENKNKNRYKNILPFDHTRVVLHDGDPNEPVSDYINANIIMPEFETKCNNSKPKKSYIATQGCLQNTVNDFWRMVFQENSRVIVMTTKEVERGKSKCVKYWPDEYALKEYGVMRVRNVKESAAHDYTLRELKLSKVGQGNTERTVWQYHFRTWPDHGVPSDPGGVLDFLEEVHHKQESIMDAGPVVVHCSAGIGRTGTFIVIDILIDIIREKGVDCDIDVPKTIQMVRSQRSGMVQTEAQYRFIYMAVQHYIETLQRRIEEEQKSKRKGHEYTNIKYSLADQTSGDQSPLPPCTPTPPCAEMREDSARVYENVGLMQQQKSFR

Consider `C[C@@H]1OCC2(CCN(c3ncc(Sc4ccnc(N)c4Cl)c4nncn34)CC2)[C@@H]1N`, for which the IC50 on SHP2^E76A protein (setting [2]) was less than 100 nM; at SHP2^E76A protein (setting [3]) it was 13 nM; in assay [1] (Table 4, read-out: p-ERK IC50) it was 335 nM; with MOLM-13 cells (setting [4]), 100 to 1000 nM; with MOLM-13 cells (setting [5]) it was 102 nM.
As for `C[C@@H]1OCC2(CCN(c3ncc(Sc4cccc(Cl)c4Cl)c4nncn34)CC2)[C@@H]1N` [listing 1 of 2 here], the IC50 stood at 3 nM on SHP2^E76A protein (setting [3]); 195 nM in assay [1] (Table 4, read-out: p-ERK IC50); 158 nM in the assay with MOLM-13 cells (setting [5]).
Regarding `C[C@@H]1OCC2(CCN(c3ncc(Sc4cccc(Cl)c4Cl)c4nncn34)CC2)[C@@H]1N` [listing 2 of 2 here], the figures for the IC50 (on SHP2^E76A protein (setting [2]); in assay [1] (setting [6]); with MOLM-13 cells (setting [4])) were less than 100 nM, 100 to 1000 nM and 100 to 1000 nM, respectively.
As to `N[C@@H]1CC(O)CC12CCN(c1ncc(Sc3cccc(Cl)c3Cl)c3nccn13)CC2` (stereo partly shown), the IC50 on SHP2^E76A protein (setting [2]) was less than 100 nM; at SHP2^E76A protein (setting [3]), 9 nM; in assay [1] (Table 4, read-out: p-ERK IC50), 28 nM; in assay [1] (setting [6]) it was less than 100 nM; with MOLM-13 cells (setting [4]), less than 100 nM; with MOLM-13 cells (setting [5]), 42 nM.
Regarding `N[C@@H]1CCCC12CCN(c1ncc(Sc3cccnc3Cl)c3nccn13)CC2`, the IC50 (in assay [1] (setting [6]); in the assay on MOLM-13 cells (setting [4])) was 100 to 1000 nM in each case.
Consider `CC1(N)CCN(c2ncc(Sc3cccc(Cl)c3Cl)c3nncn23)CC1` [1-(8-((2,3-dichlorophenyl)thio)-[1,2,4]triazolo[4,3-c]pyrimidin-5-yl)-4-methylpiperidin-4-amine], for which the values for the IC50 (at SHP2^E76A protein (setting [2]); in assay [1] (setting [6]); with MOLM-13 cells (setting [4])) were 100 to 1000 nM, 1000 to 10000 nM and 1000 to 10000 nM, respectively.
Regarding `CC1(N)CCN(c2ncc(Sc3ccnc(N)c3Cl)c3nncn23)CC1` [4-((5-(4-amino-4-methylpiperidin-1-yl)-[1,2,4]triazolo[4,3-c]pyrimidin-8-yl)thio)-3-chloropyridin-2-amine], the figures for the IC50 (at SHP2^E76A protein (setting [2]); in assay [1] (setting [6]); with MOLM-13 cells (setting [4])) were 100 to 1000 nM, 1000 to 10000 nM and 1000 to 10000 nM, respectively.
`CC1(CN)CCN(c2ncc(Sc3cccc(Cl)c3Cl)c3nncn23)CC1` [(1-(8-((2,3-dichlorophenyl)thio)-[1,2,4]triazolo[4,3-c]pyrimidin-5-yl)-4-methylpiperidin-4-yl)methanamine]: the IC50 is less than 100 nM on SHP2^E76A protein (setting [2]); 40 nM on SHP2^E76A protein (setting [3]); 170 nM in assay [1] (Table 4, read-out: p-ERK IC50); 100 to 1000 nM in assay [1] (setting [6]); 1000 to 10000 nM in the assay on MOLM-13 cells (setting [4]); 1360 nM in the assay with MOLM-13 cells (setting [5]).
In the case of `NCC1CCN(c2ncc(Sc3cccc(Cl)c3Cl)c3nncn23)C1` (stereo not shown) [(1-(8-((2,3-dichlorophenyl)thio)-[1,2,4]triazolo[4,3-c]pyrimidin-5-yl)pyrrolidin-3-yl)methanamine], the IC50 on SHP2^E76A protein (setting [2]) lay in the range of 100 to 1000 nM; in assay [1] (setting [6]), 1000 to 10000 nM; in the assay on MOLM-13 cells (setting [4]) it was 1000 to 10000 nM.
As for `CC1C[C@@H](N)C2(CCN(c3ncc(Sc4cccc(Cl)c4Cl)c4nncn34)CC2)C1` (stereo partly drawn) [(1R)-8-(8-((2,3-dichlorophenyl)thio)-[1,2,4]triazolo[4,3-c]pyrimidin-5-yl)-3-methyl-8-azaspiro[4.5]decan-1-amine], the IC50 on SHP2^E76A protein (setting [2]) is less than 100 nM; at SHP2^E76A protein (setting [3]), 4 nM; in assay [1] (Table 4, read-out: p-ERK IC50), 64 nM; in the assay on MOLM-13 cells (setting [4]) it was less than 100 nM; in the assay with MOLM-13 cells (setting [5]), 59 nM.
As for `CC1CCC2(CCN(c3ncc(Sc4cccc(Cl)c4Cl)c4nccn34)CC2)[C@@H]1N` (stereo partly drawn) [(1R)-8-(8-((2,3-dichlorophenyl)thio)imidazo[1,2-c]pyrimidin-5-yl)-2-methyl-8-azaspiro[4.5]decan-1-amine], the IC50 is less than 100 nM at SHP2^E76A protein (setting [2]), 100 to 1000 nM in assay [1] (setting [6]) and 100 to 1000 nM in the assay with MOLM-13 cells (setting [4]).
As for `CC1C[C@@H](N)C2(CCN(c3ncc(Sc4cccc(Cl)c4Cl)c4nccn34)CC2)C1` (stereo partly drawn) [(1R)-8-(8-((2,3-dichlorophenyl)thio)imidazo[1,2-c]pyrimidin-5-yl)-3-methyl-8-azaspiro[4.5]decan-1-amine], the IC50 is less than 100 nM at SHP2^E76A protein (setting [2]); 11 nM at SHP2^E76A protein (setting [3]); 53 nM in assay [1] (Table 4, read-out: p-ERK IC50); less than 100 nM in assay [1] (setting [6]); 100 to 1000 nM with MOLM-13 cells (setting [4]); 140 nM in the assay with MOLM-13 cells (setting [5]).
`CC1C[C@@H](N)C2(CCN(c3ncc(Sc4ccnc(Cl)c4Cl)c4nccn34)CC2)C1` (stereo partly drawn) [(1R)-8-(8-((2,3-dichloropyridin-4-yl)thio)imidazo[1,2-c]pyrimidin-5-yl)-3-methyl-8-azaspiro[4.5]decan-1-amine]: the IC50 on SHP2^E76A protein (setting [2]) was less than 100 nM; on SHP2^E76A protein (setting [3]), 8 nM; in assay [1] (Table 4, read-out: p-ERK IC50) it was 34 nM; in assay [1] (setting [6]), less than 100 nM; in the assay on MOLM-13 cells (setting [4]), less than 100 nM; in the assay with MOLM-13 cells (setting [5]), 28 nM.
Consider `CC1C[C@@H](N)C2(CCN(c3ncc(Sc4ccnc(N)c4Cl)c4nccn34)CC2)C1` (stereo partly drawn) [(1R)-8-(8-((2-amino-3-chloropyridin-4-yl)thio)imidazo[1,2-c]pyrimidin-5-yl)-3-methyl-8-azaspiro[4.5]decan-1-amine], for which the IC50 at SHP2^E76A protein (setting [2]) is less than 100 nM; at SHP2^E76A protein (setting [3]), 32 nM; in assay [1] (Table 4, read-out: p-ERK IC50) it was 59 nM; in assay [1] (setting [6]) it was less than 100 nM; with MOLM-13 cells (setting [4]) it was less than 100 nM; in the assay on MOLM-13 cells (setting [5]), 54 nM.
With `CC1C[C@@H](N)C2(CCN(c3ncc(Sc4cc(N)nc(Cl)c4Cl)c4nncn34)CC2)C1` (stereo partly drawn) [(1R)-8-(8-((6-amino-2,3-dichloropyridin-4-yl)thio)-[1,2,4]triazolo[4,3-c]pyrimidin-5-yl)-3-methyl-8-azaspiro[4.5]decan-1-amine], the IC50 on SHP2^E76A protein (setting [2]) is less than 100 nM; at SHP2^E76A protein (setting [3]), 2 nM; in assay [1] (Table 4, read-out: p-ERK IC50), 47 nM; in assay [1] (setting [6]), less than 100 nM; in the assay with MOLM-13 cells (setting [4]) it was less than 100 nM; with MOLM-13 cells (setting [5]) it was 17 nM.
On to `C[C@@H]1OCC2(CCN(c3ncc(Sc4cccc(Cl)c4Cl)c4nccn34)CC2)[C@@H]1N` [(3S,4S)-8-(8-((2,3-dichlorophenyl)thio)imidazo[1,2-c]pyrimidin-5-yl)-3-methyl-2-oxa-8-azaspiro[4.5]decan-4-amine], for which the IC50 is less than 100 nM on SHP2^E76A protein (setting [2]); 8 nM on SHP2^E76A protein (setting [3]); 103 nM in assay [1] (Table 4, read-out: p-ERK IC50); 100 to 1000 nM in assay [1] (setting [6]); less than 100 nM in the assay on MOLM-13 cells (setting [4]); 68 nM in the assay on MOLM-13 cells (setting [5]).
Take `C[C@@H]1OCC2(CCN(c3ncc(Sc4ccnc(Cl)c4Cl)c4nncn34)CC2)[C@@H]1N` [(3S,4S)-8-(8-((2,3-dichloropyridin-4-yl)thio)-[1,2,4]triazolo[4,3-c]pyrimidin-5-yl)-3-methyl-2-oxa-8-azaspiro[4.5]decan-4-amine]: the IC50 is less than 100 nM at SHP2^E76A protein (setting [2]); 5 nM at SHP2^E76A protein (setting [3]); 161 nM in assay [1] (Table 4, read-out: p-ERK IC50); 133 nM with MOLM-13 cells (setting [5]).
As to `C[C@@H]1OCC2(CCN(c3ncc(Sc4ccnc(Cl)c4Cl)c4nccn34)CC2)[C@@H]1N` [(3S,4S)-8-(8-((2,3-dichloropyridin-4-yl)thio)imidazo[1,2-c]pyrimidin-5-yl)-3-methyl-2-oxa-8-azaspiro[4.5]decan-4-amine], the IC50 at SHP2^E76A protein (setting [2]) was less than 100 nM; at SHP2^E76A protein (setting [3]), 5 nM; in assay [1] (Table 4, read-out: p-ERK IC50), 35 nM; in assay [1] (setting [6]), less than 100 nM; with MOLM-13 cells (setting [4]), less than 100 nM; with MOLM-13 cells (setting [5]) it was 38 nM.
In the case of `C[C@@H]1OCC2(CCN(c3ncc(Sc4ccnc(N)c4Cl)c4nccn34)CC2)[C@@H]1N` [(3S,4S)-8-(8-((2-amino-3-chloropyridin-4-yl)thio)imidazo[1,2-c]pyrimidin-5-yl)-3-methyl-2-oxa-8-azaspiro[4.5]decan-4-amine], the IC50 at SHP2^E76A protein (setting [2]) is less than 100 nM; on SHP2^E76A protein (setting [3]), 20 nM; in assay [1] (Table 4, read-out: p-ERK IC50) it was 150 nM; in assay [1] (setting [6]), 100 to 1000 nM; with MOLM-13 cells (setting [4]), less than 100 nM; in the assay on MOLM-13 cells (setting [5]), 76 nM.
Regarding `C[C@@H]1OCC2(CCN(c3ncc(Sc4cc(N)ncc4Cl)c4nccn34)CC2)[C@@H]1N` [(3S,4S)-8-(8-((2-amino-5-chloro-pyridin-4-yl)thio)imidazo[1,2-c]pyrimidin-5-yl)-3-methyl-2-oxa-8-azaspiro[4.5]decan-4-amine], the IC50 was 21 nM on SHP2^E76A protein (setting [3]); 94 nM in assay [1] (Table 4, read-out: p-ERK IC50); less than 100 nM in assay [1] (setting [6]); 180 nM with MOLM-13 cells (setting [5]).
With `N[C@@H]1CCOC12CCN(c1ncc(Sc3cccc(Cl)c3Cl)c3nccn13)CC2` [(R)-8-(8-((2,3-dichlorophenyl)thio)imidazo[1,2-c]pyrimidin-5-yl)-1-oxa-8-azaspiro[4.5]decan-4-amine], the IC50 (at SHP2^E76A protein (setting [2]); in assay [1] (setting [6])) was 100 to 1000 nM in each case.
